According to US20260152527A1, “NOVEL MELANOCORTIN ANALOGS” (priority 2022, published 2026):
Values after ≈ are worked out from the molar mass of the structure shown. Positions of bridges follow the written chain, without caps; N, C: chain ends. Non-standard residues stand in square brackets, D forms with d. Residues, ends and D or L forms follow the SMILES beside them. Triazole bridges read from a SMILES are 1,4-linked. *: point of attachment. Benzoyl(3,5-(OH)2) = O=C(c1cc(O)cc(O)c1)*; Lys(N3) = [N-]=[N+]=NCCCC[C@H](N)C(=O)O; dPhe(4-F) = N[C@H](Cc1ccc(F)cc1)C(=O)O; Nle = CCCC[C@H](N)C(=O)O; Pra = C#CC[C@H](N)C(=O)O

Columns and labels:
human recombinant MC5R = molecular target: T1, human recombinant MC5R (Homo sapiens, UniProt P33032); assay: Ca2+ signalling functional assay, MC5R stable cell line (CHO-K1/Ga15); format: cell-based
T1 construct: host or cells: CHO-K1/Ga15
T1 sequence (P33032 whole entry): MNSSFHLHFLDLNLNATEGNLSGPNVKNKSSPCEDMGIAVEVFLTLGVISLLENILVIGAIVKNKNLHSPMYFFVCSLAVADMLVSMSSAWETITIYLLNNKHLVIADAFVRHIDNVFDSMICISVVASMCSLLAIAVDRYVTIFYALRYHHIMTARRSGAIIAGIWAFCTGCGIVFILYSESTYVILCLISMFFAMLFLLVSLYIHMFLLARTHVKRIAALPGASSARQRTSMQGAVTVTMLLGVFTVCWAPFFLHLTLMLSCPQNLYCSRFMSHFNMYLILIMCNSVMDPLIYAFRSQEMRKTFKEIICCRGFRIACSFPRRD
Description: The Ca^2+ signalling functional assay was performed on a human recombinant MC5R stable cell line (CHO-K1/Ga15, GenScript). The cells were cultured at 37° C. and 5% C02 with culture medium (90% Ham's F-12K (Kaighn's)+10% FBS+400 μg/mL G418+100 μg/mL Hygromycin B). Cells were washed with PBS and then detached by incubation with 0.05% (w/v) Trypsin EDTA at 37° C. for 2 to 5 mins. Detached cells were suspended in Ham's F-12K (Kaighn's) (containing 10% FBS) and a 50 μL cell suspension is seeded into each well of a 384-well assay plate at a density of 15,000 cells/well. Cells were allowed to settle overnight at 37° C., 5% CO2. […] Then, 100 nL of compounds were transferred to the compound plate by the Echo machine. Thirty microliter assay buffer was added to the compounds plate and then shaken for 20-40 minutes. The plates were placed on the FLIPR and 15 μL of the compound was added to each well, then calcium flux signal was measured.

[1] = In vivo topical administration pharmacokinetics / tissue distribution of K173, rat; conditions: four days of BID topical dosing
Description: To evaluate the pharmacokinetics of the peptide formulations following topical administration a study in rats was undertaken.
Treatment was administered twice daily (BID) with approximately 6-8 hours between BID doses.
All animals underwent twice daily cage side clinical observations with particular attention paid to the eyes. Animals were not tranquilized for the examinations.
When animals were terminal, blood was collected by inserting a 25G needle into the heart and the animal was exsanguinated and the blood was collected into K2EDTA tubes for plasma collection. […] Once centrifuged, the clear plasma was transferred to a prelabelled polypropylene tube, snap frozen and stored at approximately −80° C.
Following euthanasia, eyes were enucleated and rinsed twice with fresh ice-cold PBS. […] The anterior segment and lens were removed and the neurosensory retina was dissected into pre-weighed 2 mL polypropylene tube, re-weighed and snap frozen. The brain was collected and weighted and the hypothalamus, hippocampus, and remining brain were dissected, placed in pre-weighted polypropylene tubes, re-weighed, and snap frozen. All tissues were stored at −80° C.
The concentrations of K173 in the aqueous humor, retina, hypothalamus, hippocampus, remaining brain tissue, and plasma was measured and the values are provided in Table 7.

human recombinant MC4R = molecular target: T2, human recombinant MC4R (Homo sapiens, UniProt P32245); assay: Ca2+ signalling functional assay, MC4R stable cell line (CHO-K1/Gα15); format: cell-based
T2 construct: host or cells: CHO-K1/Gα15
T2 sequence (P32245 whole entry): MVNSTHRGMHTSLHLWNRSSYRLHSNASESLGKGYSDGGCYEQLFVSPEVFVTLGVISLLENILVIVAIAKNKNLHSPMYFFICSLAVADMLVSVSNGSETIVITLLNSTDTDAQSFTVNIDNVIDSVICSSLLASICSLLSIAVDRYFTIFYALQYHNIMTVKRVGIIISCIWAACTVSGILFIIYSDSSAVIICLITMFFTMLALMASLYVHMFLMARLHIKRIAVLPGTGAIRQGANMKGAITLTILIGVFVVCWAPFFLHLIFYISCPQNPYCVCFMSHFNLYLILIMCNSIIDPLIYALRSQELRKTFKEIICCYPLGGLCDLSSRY
Description: The Ca^2+ signalling functional assay was performed on a human recombinant MC4R stable cell line (CHO-K1/Gα15, GenScript). The cells were cultured at 37° C. and 5% CO2 with culture medium (90% Ham's F-12K (Kaighn's)+10% FBS+8 μg/mL Puromycin+100 μg/mL Hygromycin B). Cells were washed with PBS and then detached by incubation with 0.05% (w/v) Trypsin EDTA at 37° C. for 2-5 mins. Detached cells were suspended in Ham's F-12K (Kaighn's) (containing 10% FBS) and a 50 μL cell suspension was seeded into each well of a 384-well assay plate at a density of 15,000 cells/well. Cells were allowed to settle overnight at 37° C., 5% CO2. The next day, the assay plate was centrifuged and the media was replaced with dye (1×) in assay buffer (containing HBSS, HEPES 20 mM and probenecid 1 mM) and incubated for 1 h at 37° C. […] Then, 100 nL of compounds were transferred to the compound plate by the Echo machine. 30 μL assay buffer was added to the compounds plate and then shaken for 20 to 40 minutes. The plates were placed on the FLIPR and 15 μL of the compound was added to each well, then calcium flux signal was measured.

[2] = Thermodynamic solubility study in water; format: physicochemical; conditions: Table 8; read-out: Solubility
Description: The study was conducted in water. Water was added into compound powder to make a 10 mg/mL solution. Sample tubes were shaken at the vibrator for 1 hour (1000 rpm) and then equilibrated overnight at room temperature. Samples were centrifuged at 12000 rpm for 10 min to precipitate undissolved particles. Supernatants were transferred from tubes to a new plate. An aliquot of the supernatant after centrifugation was taken from each well, then analyzed by LC-MS/MS. The concentration of the supernatants was quantified by a standard curve.

For `CCCC[C@H](NC(=O)c1cc(O)cc(O)c1)C(=O)N[C@H]1CCCCn2cc(nn2)C[C@@H](C(N)=O)NC(=O)[C@H](Cc2c[nH]c3ccccc23)NC(=O)[C@H](CCCNC(=N)N)NC(=O)[C@@H](Cc2ccc(F)cc2)NC(=O)[C@H](Cc2c[nH]cn2)NC1=O` [KR-072, HyBA-Nle-[Lys(N3)-His-Dphe(4-F)-Arg-Trp-Pra]-NH2] ({Benzoyl(3,5-(OH)2)}-[Nle][Lys(N3)]H[dPhe(4-F)]RW[Pra]-NH2; triazole 2-7), the EC50 (human recombinant MC5R) was 78 nM, the IC50 (human recombinant MC5R; calcium flux functional assay) was 78 nM and the “K173 level in the neural retina” value [1] was “high levels”. The “K173 presence in brain” value ([1]; hypothalamus, hippocampus, remaining brain) was “found in all parts of the brains”, the EC50 (human recombinant MC4R) was 98.6 nM and the solubility [2] was 6470 µg/mL (≈ 5.58 mM).
